From patent US6875451B2, “Compositions and methods for the treatment of primary and metastatic neoplastic diseases using arsenic compounds” (PolaRx Biopharmaceuticals Inc., priority 1997, dated 2005)

What was measured:
Type in all cases: cell-based
OVCAR-3 = test: SRB growth assay, 2 days exposure, ovarian cancer
Experimental: (§1) Arsenic trioxide (1 mg/ml, 10 mg/ampoule, manufactured by Taylor Pharmaceuticals, Decatur, Ill.) was tested at five concentrations each at 10-fold dilutions, i.e., 10^−5, 10^−6, 10^−7, 10^−8 and 10^−9 μg/ml.
(§2) The in vitro tests were performed by incubating the test cells in the presence of the indicated concentration of arsenic trioxide under standard culture conditions for a designated period of time, which is followed by a sulforhodamine B (SRB) protein assay to estimate cell viability or growth. The cell lines are organized into subpanels according to the origin of the cell lines, e.g., leukemia, breast cancer, etc. A description of the cell lines and method of testing is described in Monk et al. (1997, Anticancer Drug Des. 12:533-41) and Weinstein et al., (1997, Science 275:343-9), which are incorporated herein in their entirety.
(§3) The measurement of an effect is expressed in Percentage Growth (PG). The measured effect of the compound on a cell line is calculated according to one or the other of the following two expressions: If (Mean ODtest−Mean ODzero)≧0. then PG=100×(Mean ODtest−Mean ODzero)/(Mean ODctrl−Mean ODzero) If (Mean ODtest−Mean ODzero)<0. then PG=100×(Mean ODtest−Mean ODzero)/(Mean ODzero where: • Mean ODzero=the average of optical density measurements of SRB-derived color just before exposure of cells to the test compounds; • Mean ODtest=the average of optical density measurements of SRB-derived color after exposure of cells to the test compound for a designated period of time; and • Mean ODctrl=the average of optical density measurements of SRB-derived color after with no exposure of cells to the test compound for a designated period of time
(§4) The first two columns describe the subpanel (e.g., leukemia) and cell line (e.g., CCRF-CEM) involved. The next two columns list the Mean ODzero and Mean ODctrl; the next five columns list the Mean ODtest for each of five different concentrations. Each concentration is expressed as the log10 (molar or μg/ml). The next five columns list the calculated PGs for each concentration. The response parameters GI50, TGI and LC50 are interpolated values representing the concentrations at which the PG is +50, 0, and −50, respectively. Sometimes these response parameters cannot be obtained by interpolation. If, for instance, all of the PGs in a given row exceed +50, then none of the three parameters can be obtained by interpolation. In such a case, the value given for each response parameter is the highest concentration tested and is preceded by a “>” sign. This practice is extended similarly to the other possible situations where a response parameter cannot be obtained by interpolation.
(§5) In the first set, the cells from 56 different cancer cell lines were exposed to five concentrations of arsenic trioxide continuously for two days prior to performing the SRB assay. In the second set, the cells from 50 different cell lines (a subset of the first 56 cell lines, plus the renal cancer cell line 786-0) were exposed continuously for six days prior to the SRB assay.

K-562 = test: SRB growth assay, 6 days exposure, leukemia; conditions: K-562, 6 days
Experimental: as §1, §2, §3, §4, §5

CCRF-CEM = test: SRB growth assay, 6 days exposure, leukemia
Experimental: as §1, §2, §3, §4, §5

MOLT-4 = test: SRB growth assay, 6 days exposure, leukemia; conditions: MOLT-4, 6 days
Experimental: as §1, §2, §3, §4, §5

RPMI-8226 = test: SRB growth assay, 6 days exposure, leukemia; conditions: RPMI-8226, 6 days
Experimental: as §1, §2, §3, §4, §5

TX-10 = test: SRB growth assay, 2 days exposure, renal cancer
Experimental: as §1, §2, §3, §4, §5

CAKI-1 = test: SRB growth assay, 2 days exposure, renal cancer
Experimental: as §1, §2, §3, §4, §5

UO-31 = test: SRB growth assay, 2 days exposure, renal cancer
Experimental: as §1, §2, §3, §4, §5

SN12C = test: SRB growth assay, 2 days exposure, renal cancer
Experimental: as §1, §2, §3, §4, §5

RXE 393 = test: SRB growth assay, 2 days exposure, renal cancer
Experimental: as §1, §2, §3, §4, §5

A498 = test: SRB growth assay, 2 days exposure, renal cancer
Experimental: as §1, §2, §3, §4, §5

[1] = read-out: LC50 (the source's name)

Substance: arsenic trioxide
- TGI (OVCAR-3): >0.0126 ng/mL
- Percent Growth (OVCAR-3; log10 conc −4.9): 12%
- Percent Growth (OVCAR-3; log10 conc −5.9): 90%
- Percent Growth (OVCAR-3; log10 conc −6.9): 97%
- Percent Growth (OVCAR-3; log10 conc −7.9): 99%
- Percent Growth (OVCAR-3; log10 conc −8.9): 101%
- TGI (K-562): >1.26E−05
- Mean Optical Densities (K-562; Log 10 Concentration −4.9): 0.096
- Percent Growth (K-562; Log 10 Concentration −4.9): 2%
- Mean Optical Densities (K-562; Log 10 Concentration −5.9): 2.931
- Percent Growth (K-562; Log 10 Concentration −5.9): 97%
- Mean Optical Densities (K-562; Log 10 Concentration −6.9): 3.360
- Percent Growth (K-562; Log 10 Concentration −6.9): 112%
- Mean Optical Densities (K-562; Log 10 Concentration −7.9): 2.992
- Percent Growth (K-562; Log 10 Concentration −7.9): 99%
- Mean Optical Densities (K-562; Log 10 Concentration −8.9): 3.042
- Percent Growth (K-562; Log 10 Concentration −8.9): 101%
- CC50 (K-562; [1]): > 12.6 µM
- TGI (CCRF-CEM): >1.26E−05
- Mean Optical Densities (CCRF-CEM; Log 10 Concentration −4.9): 0.048
- Percent Growth (CCRF-CEM; Log 10 Concentration −4.9): 0%
- Mean Optical Densities (CCRF-CEM; Log 10 Concentration −5.9): 0.320
- Percent Growth (CCRF-CEM; Log 10 Concentration −5.9): 8%
- Mean Optical Densities (CCRF-CEM; Log 10 Concentration −6.9): 3.051
- Percent Growth (CCRF-CEM; Log 10 Concentration −6.9): 87%
- Mean Optical Densities (CCRF-CEM; Log 10 Concentration −7.9): 3.592
- Percent Growth (CCRF-CEM; Log 10 Concentration −7.9): 102%
- Mean Optical Densities (CCRF-CEM; Log 10 Concentration −8.9): 3.601
- Percent Growth (CCRF-CEM; Log 10 Concentration −8.9): 103%
- CC50 (CCRF-CEM; [1]): > 12.6 µM
- TGI (MOLT-4): >1.26E−05
- Mean Optical Densities (MOLT-4; Log 10 Concentration −4.9): 0.113
- Percent Growth (MOLT-4; Log 10 Concentration −4.9): 20%
- Mean Optical Densities (MOLT-4; Log 10 Concentration −5.9): 0.245
- Percent Growth (MOLT-4; Log 10 Concentration −5.9): 47%
- Mean Optical Densities (MOLT-4; Log 10 Concentration −6.9): 0.432
- Percent Growth (MOLT-4; Log 10 Concentration −6.9): 85%
- Mean Optical Densities (MOLT-4; Log 10 Concentration −7.9): 0.228
- Percent Growth (MOLT-4; Log 10 Concentration −7.9): 43%
- Mean Optical Densities (MOLT-4; Log 10 Concentration −8.9): 0.554
- Percent Growth (MOLT-4; Log 10 Concentration −8.9): 111%
- Mean Optical Densities (RPMI-8226; Log 10 Concentration −4.9): 0.065
- Percent Growth (RPMI-8226; Log 10 Concentration −4.9): −2%
- Mean Optical Densities (RPMI-8226; Log 10 Concentration −5.9): 0.368
- Percent Growth (RPMI-8226; Log 10 Concentration −5.9): 22%
- Mean Optical Densities (RPMI-8226; Log 10 Concentration −6.9): 1.423
- Percent Growth (RPMI-8226; Log 10 Concentration −6.9): 99%
- Mean Optical Densities (RPMI-8226; Log 10 Concentration −7.9): 1.263
- Percent Growth (RPMI-8226; Log 10 Concentration −7.9): 88%
- Mean Optical Densities (RPMI-8226; Log 10 Concentration −8.9): 1.607
- Percent Growth (RPMI-8226; Log 10 Concentration −8.9): 113%
- CC50 (RPMI-8226; [1]): > 12.6 µM
- TGI (TX-10): >0.0126 ng/mL
- Percent Growth (TX-10; log10 conc −4.9): 55%
- Percent Growth (TX-10; log10 conc −5.9): 96%
- Percent Growth (TX-10; log10 conc −6.9): 102%
- Percent Growth (TX-10; log10 conc −7.9): 96%
- Percent Growth (TX-10; log10 conc −8.9): 98%
- TGI (CAKI-1): 0.00913 ng/mL
- Percent Growth (CAKI-1; log10 conc −4.9): −13%
- Percent Growth (CAKI-1; log10 conc −5.9): 78%
- Percent Growth (CAKI-1; log10 conc −6.9): 128%
- Percent Growth (CAKI-1; log10 conc −7.9): 103%
- Percent Growth (CAKI-1; log10 conc −8.9): 120%
- TGI (UO-31): >0.0126 ng/mL
- Percent Growth (UO-31; log10 conc −4.9): 42%
- Percent Growth (UO-31; log10 conc −5.9): 103%
- Percent Growth (UO-31; log10 conc −6.9): 110%
- Percent Growth (UO-31; log10 conc −7.9): 108%
- Percent Growth (UO-31; log10 conc −8.9): 105%
- TGI (SN12C): 0.00696 ng/mL
- Percent Growth (SN12C; log10 conc −4.9): −28%
- Percent Growth (SN12C; log10 conc −5.9): 81%
- Percent Growth (SN12C; log10 conc −6.9): 88%
- Percent Growth (SN12C; log10 conc −7.9): 96%
- Percent Growth (SN12C; log10 conc −8.9): 97%
- TGI (RXE 393): >0.0126 ng/mL
- Percent Growth (RXE 393; log10 conc −4.9): 7%
- Percent Growth (RXE 393; log10 conc −5.9): 67%
- Percent Growth (RXE 393; log10 conc −6.9): 109%
- Percent Growth (RXE 393; log10 conc −7.9): 74%
- Percent Growth (RXE 393; log10 conc −8.9): 23%
- TGI (A498): 0.00971 ng/mL
- Percent Growth (A498; log10 conc −4.9): −11%
- Percent Growth (A498; log10 conc −5.9): 84%
- Percent Growth (A498; log10 conc −6.9): 89%
- Percent Growth (A498; log10 conc −7.9): 93%
- Percent Growth (A498; log10 conc −8.9): 105%
